In patent US6107549A, “Genetically engineered plant resistance to thiazopyr and other pyridine herbicides” (Monsanto Company, priority 1999, dated 2000):
Read-outs that look alike come from different tables or passages of the source.

What was measured:
[1] = molecular target: T1, pyridine-esterase (Oryctolagus cuniculus, UniProt P12337, A196R/H30K); type: biochemical, rabbit; conditions: tobacco line #37437 extract, FIG. 4
T1 construct: made in house; host or cells: transgenic tobacco (Samson) and tomato (UC82B) plants, tissue extracts
T1 sequence (P12337 19-565 H30K/A196R): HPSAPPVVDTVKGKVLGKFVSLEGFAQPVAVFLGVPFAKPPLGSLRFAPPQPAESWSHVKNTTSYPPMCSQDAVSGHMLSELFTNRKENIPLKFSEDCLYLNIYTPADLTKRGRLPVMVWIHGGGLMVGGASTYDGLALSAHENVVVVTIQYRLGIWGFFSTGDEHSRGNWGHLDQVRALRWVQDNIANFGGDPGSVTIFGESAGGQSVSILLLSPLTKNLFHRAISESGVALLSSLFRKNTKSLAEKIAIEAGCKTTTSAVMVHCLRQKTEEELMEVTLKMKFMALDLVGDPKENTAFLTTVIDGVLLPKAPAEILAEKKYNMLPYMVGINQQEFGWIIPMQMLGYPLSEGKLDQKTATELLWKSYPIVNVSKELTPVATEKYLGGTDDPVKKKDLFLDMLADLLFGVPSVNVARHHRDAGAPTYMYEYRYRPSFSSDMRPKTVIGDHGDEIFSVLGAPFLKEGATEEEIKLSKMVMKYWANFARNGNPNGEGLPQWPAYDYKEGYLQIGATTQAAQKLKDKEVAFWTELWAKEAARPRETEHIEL
Protocol: (§1) Esterase activity assays. Esterase activity was measured in vitro by conversion of either [^14 C]thiazopyr or [^14 C]MON 14300 to their corresponding monoacid. Pyridine-esterase activity was assayed during protein purification and from tissue extracts of transgenic plants. The homogenizing buffer for plant tissues consisted of 100 mM Tris pH 8.0, 1 mM EDTA, 1 mM DTT, and 10% glycerol in water. Plant tissues (1 g/ml buffer) including leaves, seeds, flowers, seedlings, etc. were homogenized in conical centrifuge tubes using a spinning pestle at 4° C. Following centrifugation (12,000× g), the supernatant (250 μl) was assayed immediately for esterase activity by incubation with [^14 C]thiazopyr or [^14 C]MON 14300 (4 μg) in 0.1 M Tris pH 8.0 buffer (50 μl) at 37° C. The reaction was sampled (100 μL) at various times (0.5 to 100 hr) to generate a kinetic profile of monoacid formation. The reaction was stopped by addition of 1% trifluoroacetic acid in acetonitrile (v/v, 150 μl). Following centrifugation (12,000× g for 3 min), the supernatant was analyzed by HPLC/RAD (radioactivity detection) to resolve the monoacid from the parent herbicide and other metabolites. Control reactions in the absence of the esterase recovered un-reacted thiazopyr or MON 14300 for the duration of experiments. Esterase activity was also assayed during protein purification following a similar procedure except a single time-point (1-2 hrs) of incubation was selected within the linear range of reaction. In vitro assays also employed three commonly used calorimetric (p-nitrophenyl butyrate) or fluorescent (4-methyl umbelliferyl butyrate and 5-bromo-4-chloro-3-indolylacetate) substrates. These substrates are useful in rapidly and qualitatively detecting general esterase activity.
Tissue extracts from 3 tobacco R1 seedlings were employed for further studies. Two of the lines (#37437 and #37432) expressed high levels of esterase (~0.5%) and one line (#37436) which expressed no pyridine-esterase was used as negative control. Tissue extracts were incubated with [^14 C]MON 14300 and formation of the monoacid monitored with time. […] In comparison, less that 2% monoacid was detected in line (#37436). […] First, pyridine-esterase was capable of driving the hydrolysis reaction to completion with no apparent product inhibition, and second, there was no endogenous esterase activity in tobacco which catalyzed MON 14300 hydrolysis.

[2] = molecular target: T2, RLE3 (Oryctolagus cuniculus, UniProt P12337, A196R/H30K); test: Esterase activity of RLE3 cDNA expressed in insect cells; type: biochemical, rabbit; conditions: culture media from RLE3 cells; esterase inhibitor
T2 construct: 19-residue synthetic ER signal peptide (design based on the homologous rat esterase, Robbi et al. 1990; Ala added after Met) (N); made in house; host or cells: Spodoptera frugiperda SF9 cells, baculovirus
T2 sequence (P12337 with tags, fused parts or gaps H30K/A196R): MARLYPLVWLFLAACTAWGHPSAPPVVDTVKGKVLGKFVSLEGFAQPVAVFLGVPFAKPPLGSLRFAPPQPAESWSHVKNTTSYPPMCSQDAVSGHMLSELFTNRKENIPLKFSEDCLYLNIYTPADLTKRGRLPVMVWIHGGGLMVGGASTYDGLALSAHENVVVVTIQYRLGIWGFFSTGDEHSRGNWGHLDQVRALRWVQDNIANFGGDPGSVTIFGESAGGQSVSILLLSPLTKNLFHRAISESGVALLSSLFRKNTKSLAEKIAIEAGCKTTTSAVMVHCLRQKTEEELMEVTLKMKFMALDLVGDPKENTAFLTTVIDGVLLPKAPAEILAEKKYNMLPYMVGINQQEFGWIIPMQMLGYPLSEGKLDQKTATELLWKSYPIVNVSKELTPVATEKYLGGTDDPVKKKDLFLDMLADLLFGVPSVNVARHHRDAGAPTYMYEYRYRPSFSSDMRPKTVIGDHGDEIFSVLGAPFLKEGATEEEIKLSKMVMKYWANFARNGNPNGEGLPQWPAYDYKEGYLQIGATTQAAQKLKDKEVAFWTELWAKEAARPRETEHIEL
Protocol: as §1
Expression of RLE1 and RLE3 cDNAs in insect cells. Mature rabbit liver esterases are glycoproteins which reside in the lumen of the endoplasmic reticulum (ER) (Korza et al., 1988). […]

[3] = Feng et al., 1995b; cited from earlier work

SMILES: COC(=O)c1c(Cl)nn(C)c1S(=O)(=O)NC(=O)Nc1nc(OC)cc(OC)n1
- hydrolysis by pyridine-esterase (substrate specificity) [1]: little to no hydrolysis
- hydrolysis by pyridine-esterase (substrate specificity) ([1]; listed as halosulfiron): not

SMILES: CSC(=O)c1c(C(F)F)nc(C(F)(F)F)c(C(=O)SC)c1CC(C)C [Dithiopyr, dithiopyr]
- hydrolysis by pyridine-esterase (substrate specificity) [1]: not hydrolyzed

SMILES: O=[N+]([O-])c1ccc(OP(=O)(O)Oc2ccc([N+](=O)[O-])cc2)cc1 [bis(p-nitropheyl) phosphate]
- inactivation of esterase activity [2]: inactivated

SMILES: CC(C)Cc1c(C(=O)O)c(C(F)F)nc(C(F)(F)F)c1C1=NCCS1 [monoacid metabolite]
- herbicidal activity [3]: virtually devoid of any herbicidal activity
